Data from patent publication US20090275514A1, “USE OF CALMODULIN KINASE II INHIBITORS TO TREAT OR PREVENT HEART MUSCLE INFLAMMATION” (priority 2008, published 2009).

Key:
[1] = system: Cfb expression in neonatal cardiomyocytes; experiment: LPS-induced Cfb expression in cultured neonatal cardiomyocytes (qRT-PCR); format: cell-based, mouse
Description: (§1) All animal experiments were done in compliance with the “Guiding Principles for the Care and Use of Laboratory Animals.” Mouse neonatal cardiac myocytes were isolated from 1 to 3-day-old newborn B6D2/F1 mice according to an established protocol. Hearts were dissected and incubated with F-10 nutrient medium, containing 140 μg/ml of collagenase type-2 (Sigma) and 440 μg/ml pancreatin (Sigma) until cells were dissociated. The cells were then washed, resuspended in 1:1 mix of Dulbecco's minimal Eagle's medium (DMEM) and F10 nutrient mix with 5% each of equine and bovine calf serum. These cells were pre-plated in tissue culture dishes for 1 h to allow for attachment of nonmyocytes. The resulting non-adherent myocytes were plated on fibronectin-coated (Sigma) tissue culture dishes. […]
(§2) Total RNA was isolated from mouse heart, liver, isolated adult cardiomyocytes, or cultured neonatal cardiomyocytes using Qiagen RNA isolation kit. RNA samples were quantified by determining A260 in capillary cuvettes (Gene Machine, Pharmacia). […]
(§3) For SYBR Green quantitative real-time PCR, 1 μl of reverse transcription reaction was mixed with 10 pmoles each specific primer and 12.5 μl SYBR PCR Master Mix (BioRad). […] The threshold cycle (CT) was determined by the icycler software, and quantification of relative mRNA levels was performed by ΔΔCT method.

[2] = system: Cfb expression in neonatal cardiomyocytes; experiment: TNFα-induced Cfb expression in cultured neonatal cardiomyocytes (qRT-PCR); format: cell-based, mouse; details: RNA after 12 h
Description: as §1, §2, §3

[3] = system: CFB protein in infarcted hearts; experiment: CFB protein in hearts after myocardial infarction (immunoblotting); format: in vivo, mouse; details: one week following MI; transgenic hearts compared to WT
Description: (§4) Mouse hearts were infarcted by opening the thoracic cavity and placing a ligature on the left descending coronary artery, as described (3). Both male and female mice were infracted, and three-week post-infarction, RNA was isolated from cardiac tissue using RNeasy kit (Qiagen). Hearts were harvested one week after MI surgery for protein studies. Gene expression profiles of pooled RNA from at least five hearts of each gender were determined from cDNA microarrays containing 8600 elements derived from clones isolated from normalized cDNA libraries or purchased from ResGen (Invitrogen) as described previously (52). Differential expression values were calculated as the ratio of the median of background-subtracted fluorescent intensity of the experimental RNA to the median of background-subtracted fluorescent intensity of the control RNA. […] For the analyses, the results from both genders were compiled.
Tissue samples were homogenized in modified RIPA buffer (50 mM Hepes, pH 7.5; 150 mM NaCl; 5 mM EDTA; 1% v/v NP-40 and 0.5% w/v deoxycholate) containing mixture of protease and phosphatase inhibitors. […] Protein bands were detected using ECL reagent (Lumi-Light, Roche), and loading was routinely monitored by Coomassie staining of the blots after antibody probing. For quantification, QuantityOne software (BioRad) was used.

[4] = system: gene expression in infarcted hearts; experiment: cDNA microarray of infarcted hearts (CaMKII-regulated genes); format: in vivo, mouse; details: three weeks after MI; compared to infarcted AC3-C hearts; 8,600 genes on array
Description: as §4

[5] = neonatal cardiomyocytes from transgenic mice, compared to WT cells

Compound	induction of Cfb mRNA by LPS ([1]; WT neonatal cardiomyocytes, water-soluble KN-93 (2.5 μM) added an hour prior to LPS 10 μg/ml, RNA after 12 h)	induction of Cfb expression by TNFα ([2]; neonatal cardiomyocytes, TNFα (100 pg/ml) with water-soluble KN-93 (2.5 μM))	CFB protein in heart after MI [3]	induction of Cfb mRNA by LPS in cardiomyocytes expressing the peptide [1, 5]	induction of Cfb by TNFα in cardiomyocytes expressing the peptide [2, 5]	number of genes with reduced expression in infarcted hearts [4]
COc1ccc(S(=O)(=O)N(CCO)c2ccccc2CN(C)CC=Cc2ccc(Cl)cc2)cc1 [KN-93]	significantly (P<0.001) attenuated induction of Cfb mRNA	significantly blunted				
AC3-I: CaMKII-inhibitory peptide of SEQ ID NO:16, transgenically expressed in cardiomyocytes (KKALHRQEAVDCL)			Significantly reduced CFB protein	strong attenuation of Cfb induction	significantly lower	88 genes
